Test results from ChEMBL document CHEMBL4359906, “Design and synthesis of new N-terminal fatty acid modified-antimicrobial peptide analogues with potent in vitro biological activity” (Eur J Med Chem, 2019).
Activity calls are given as the source filed them. The rule behind the calls is not given here.

Experiments:
Pseudomonas aeruginosa [1] = assay: Antibiofilm activity against Pseudomonas aeruginosa ATCC 27853 at 2 times of MIC after 24 hrs by crystal violet staining based assay; assay type: functional, organism-based
Staphylococcus aureus [2] = assay: Antibacterial activity against Staphylococcus aureus ATCC 25923 after 18 hrs in presence of MgCl2 by CLSI based broth microdilution method (reference value: 32 microM); assay type: functional; conditions: ATCC 25923, 18 h
Staphylococcus aureus [3] = assay: Antibacterial activity against Staphylococcus aureus ATCC 25923 after 18 hrs in presence of NaCl by CLSI based broth microdilution method (reference value: 32 microM); assay type: functional; conditions: ATCC 25923, 18 h
Escherichia coli [4] = assay: Antibacterial activity against Escherichia coli ATCC 25922 after 18 hrs in presence of NaCl by CLSI based broth microdilution method (reference value: 64 microM); assay type: functional; conditions: ATCC 25922, 18 h
Escherichia coli [5] = assay: Antimicrobial activity against Escherichia coli ATCC 25922 at 1 mM preincubated for 6 hrs in presence of 200 ug/ml chymotrypsin and measured after 18 hrs by microplate reader analysis; assay type: functional, organism-based
Escherichia coli [6] = assay: Antibacterial activity against Escherichia coli ATCC 25922 after 18 hrs in presence of MgCl2 by CLSI based broth microdilution method (reference value: 64 microM); assay type: functional; conditions: ATCC 25922, 18 h
Escherichia coli [7] = assay: Antimicrobial activity against Escherichia coli ATCC 25922 preincubated for 1 hr in presence of 10% mouse serum and measured after 18 hrs by CLSI-based broth microdilution assay (reference value: 64 microM); assay type: functional
Escherichia coli [8] = assay: Antibacterial activity against Escherichia coli ATCC 25922 after 18 hrs in presence of FeCl3 by CLSI based broth microdilution method (reference value: 64 microM); assay type: functional; conditions: ATCC 25922, 18 h
Staphylococcus aureus [9] = assay: Antibacterial activity against Staphylococcus aureus ATCC 25923 after 18 hrs in presence of KCl by CLSI based broth microdilution method (reference value: 32 microM); assay type: functional; conditions: ATCC 25923, 18 h
Escherichia coli [10] = assay: Antimicrobial activity against Escherichia coli ATCC 25922 preincubated for 6 hrs in presence of 10% mouse serum and measured after 18 hrs by CLSI-based broth microdilution assay (reference value: 64 microM); assay type: functional
Staphylococcus aureus [11] = assay: Antibacterial activity against Staphylococcus aureus ATCC 25923 after 18 hrs in presence of FeCl3 by CLSI based broth microdilution method (reference value: 32 microM); assay type: functional; conditions: ATCC 25923, 18 h
Escherichia coli [12] = assay: Antibacterial activity against Escherichia coli ATCC 25922 after 18 hrs in presence of KCl by CLSI based broth microdilution method (reference value: 64 microM); assay type: functional; conditions: ATCC 25922, 18 h
Staphylococcus aureus [13] = assay: Antibacterial activity against Staphylococcus aureus ATCC 25923 after 18 hrs in presence of NaCl by CLSI based broth microdilution method (reference value: 128 microM); assay type: functional; conditions: ATCC 25923, 18 h
Staphylococcus aureus [14] = assay: Antibacterial activity against Staphylococcus aureus ATCC 25923 after 18 hrs in presence of KCl by CLSI based broth microdilution method (reference value: 128 microM); assay type: functional; conditions: ATCC 25923, 18 h
Staphylococcus aureus [15] = assay: Antibacterial activity against Staphylococcus aureus ATCC 25923 after 18 hrs in presence of MgCl2 by CLSI based broth microdilution method (reference value: 128 microM); assay type: functional; conditions: ATCC 25923, 18 h
[16] = Cytotoxicity against mouse RAW264.7 cells assessed as cell proliferation at 8 uM after 1 hr by MTT assay relative to control; assay type: cell-based; conditions: read-out: Activity
Staphylococcus aureus [17] = assay: Antibacterial activity against Staphylococcus aureus ATCC 25923 after 18 hrs in presence of NaCl by CLSI based broth microdilution method (reference value: 4 microM); assay type: functional; conditions: ATCC 25923, 18 h
Pseudomonas aeruginosa [18] = assay: Antibiofilm activity against Pseudomonas aeruginosa ATCC 27853 at 1 to 2 times of MIC after 24 hrs by crystal violet staining based assay; assay type: functional, organism-based
Staphylococcus aureus [19] = assay: Antibacterial activity against Staphylococcus aureus ATCC 25923 after 18 hrs in presence of MgCl2 by CLSI based broth microdilution method (reference value: 4 microM); assay type: functional; conditions: ATCC 25923, 18 h
Staphylococcus aureus [20] = assay: Antibacterial activity against Staphylococcus aureus ATCC 25923 after 18 hrs in presence of FeCl3 by CLSI based broth microdilution method (reference value: 4 microM); assay type: functional; conditions: ATCC 25923, 18 h
Escherichia coli [21] = assay: Antimicrobial activity against Escherichia coli ATCC 25922 at 1 mM preincubated for 6 hrs in presence of 20 ug/ml chymotrypsin and measured after 18 hrs by microplate reader analysis; assay type: functional, organism-based
Staphylococcus aureus [22] = assay: Antibacterial activity against Staphylococcus aureus ATCC 25923 after 18 hrs in presence of KCl by CLSI based broth microdilution method (reference value: 64 microM); assay type: functional; conditions: ATCC 25923, 18 h
[23] = Cytotoxicity against mouse RAW264.7 cells assessed as cell proliferation at 32 uM after 1 hr by MTT assay relative to control; assay type: cell-based; conditions: read-out: Activity
Staphylococcus aureus [24] = assay: Antibacterial activity against Staphylococcus aureus ATCC 25923 after 18 hrs in presence of MgCl2 by CLSI based broth microdilution method (reference value: 64 microM); assay type: functional; conditions: ATCC 25923, 18 h
Staphylococcus aureus [25] = assay: Antibacterial activity against Staphylococcus aureus ATCC 25923 after 18 hrs in presence of NaCl by CLSI based broth microdilution method (reference value: 64 microM); assay type: functional; conditions: ATCC 25923, 18 h
Staphylococcus aureus [26] = assay: Antibacterial activity against Staphylococcus aureus ATCC 25923 after 18 hrs in presence of FeCl3 by CLSI based broth microdilution method (reference value: 64 microM); assay type: functional; conditions: ATCC 25923, 18 h
DNA = assay: Binding affinity to Escherichia coli ATCC 25922 genomic DNA at 8 x MIC after 30 mins by agarose gel electrophoresis; assay type: nucleic-acid assay
Escherichia coli [27] = assay: Antimicrobial activity against Escherichia coli ATCC 25922 at 1 mM preincubated for 6 hrs in presence of 2000 ug/ml chymotrypsin and measured after 18 hrs by microplate reader analysis; assay type: functional, organism-based
RAW264.7 = assay: Cytotoxicity against mouse RAW264.7 cells assessed as cell proliferation at 16 uM after 1 hr by MTT assay; assay type: cell-based; conditions: raw264.7, 1 h
Escherichia coli [28] = assay: Antimicrobial activity against Escherichia coli ATCC 25922 preincubated for 1 hr in presence of 10% mouse serum and measured after 18 hrs by CLSI-based broth microdilution assay (reference value: 4 microM); assay type: functional
Escherichia coli [29] = assay: Antibacterial activity against Escherichia coli ATCC 25922 after 18 hrs in presence of KCl by CLSI based broth microdilution method (reference value: 4 microM); assay type: functional; conditions: ATCC 25922, 18 h
Escherichia coli [30] = assay: Antibacterial activity against Escherichia coli ATCC 25922 after 18 hrs in presence of FeCl3 by CLSI based broth microdilution method (reference value: 4 microM); assay type: functional; conditions: ATCC 25922, 18 h
Staphylococcus aureus [31] = assay: Antibacterial activity against Staphylococcus aureus ATCC 25923 after 18 hrs in presence of NaCl by CLSI based broth microdilution method (reference value: 16 microM); assay type: functional; conditions: ATCC 25923, 18 h
Escherichia coli [32] = assay: Antibacterial activity against Escherichia coli ATCC 25922 after 18 hrs in presence of MgCl2 by CLSI based broth microdilution method (reference value: 4 microM); assay type: functional; conditions: ATCC 25922, 18 h
Staphylococcus aureus [33] = assay: Antibacterial activity against Staphylococcus aureus ATCC 25923 after 18 hrs in presence of MgCl2 by CLSI based broth microdilution method (reference value: 16 microM); assay type: functional; conditions: ATCC 25923, 18 h

CCCCCCCCCC(=O)NCC(=O)N[C@@H](CC(C)C)C(=O)N[C@@H](CC(C)C)C(=O)N[C@H](CCCCN)C(=O)N[C@@H](CCCNC(=N)N)C(=O)N[C@H](C(=O)N[C@H](CCCCN)C(=O)N[C@H](C(=O)N[C@@H](CC(C)C)C(=O)N[C@@H](CC(C)C)C(N)=O)[C@@H](C)O)[C@@H](C)CC
inhibition (Pseudomonas aeruginosa [1]): Active

CCCCCCCC(=O)NCC(=O)N[C@@H](CC(C)C)C(=O)N[C@@H](CC(C)C)C(=O)N[C@H](CCCCN)C(=O)N[C@@H](CCCNC(=N)N)C(=O)N[C@H](C(=O)N[C@H](CCCCN)C(=O)N[C@H](C(=O)N[C@@H](CC(C)C)C(=O)N[C@@H](CC(C)C)C(N)=O)[C@@H](C)O)[C@@H](C)CC
MIC (Staphylococcus aureus [2]): 64 µM
MIC (Staphylococcus aureus [3]): 128 µM
MIC (Escherichia coli [4]): 64 µM
Activity (Escherichia coli [5]): Active
MIC (Escherichia coli [6]): 64 µM
MIC (Escherichia coli [7]): 64 µM
MIC (Escherichia coli [8]): 32 µM
MIC (Staphylococcus aureus [9]): 64 µM
MIC (Escherichia coli [10]): 64 µM
MIC (Staphylococcus aureus [11]): 32 µM
MIC (Escherichia coli [12]): 32 µM

CCCC(=O)NC(Cc1cn(CCCC[C@H](NC(C)=O)C(=O)NCC(=O)N[C@@H](CC(C)C)C(=O)N[C@@H](CC(C)C)C(=O)N[C@H](CCCCN)C(=O)N[C@@H](CCCNC(=N)N)C(=O)N[C@H](C(=O)N[C@H](CCCCN)C(=O)N[C@H](C(=O)N[C@@H](CC(C)C)C(=O)N[C@@H](CC(C)C)C(N)=O)[C@@H](C)O)[C@@H](C)CC)nn1)C(=O)NCC(=O)N[C@@H](CC(C)C)C(=O)N[C@@H](CC(C)C)C(=O)N[C@H](CCCCN)C(=O)N[C@@H](CCCNC(=N)N)C(=O)N[C@H](C(=O)N[C@H](CCCCN)C(=O)N[C@H](C(=O)N[C@@H](CC(C)C)C(=O)N[C@@H](CC(C)C)C(N)=O)[C@@H](C)O)[C@@H](C)CC (stereo not given in full)
MIC (Staphylococcus aureus [13]): > 128 µM
MIC (Staphylococcus aureus [14]): 128 µM
MIC (Staphylococcus aureus [15]): > 128 µM

CCCCCCCCCCCC(=O)NCC(=O)N[C@@H](CC(C)C)C(=O)N[C@@H](CC(C)C)C(=O)N[C@H](CCCCN)C(=O)N[C@@H](CCCNC(=N)N)C(=O)N[C@H](C(=O)N[C@H](CCCCN)C(=O)N[C@H](C(=O)N[C@@H](CC(C)C)C(=O)N[C@@H](CC(C)C)C(N)=O)[C@@H](C)O)[C@@H](C)CC
viability at 1 h, 8 µM [16]: < 80%
MIC (Staphylococcus aureus [17]): 4 µM
inhibition (Pseudomonas aeruginosa [18]): Active
MIC (Staphylococcus aureus [19]): 8 µM
MIC (Staphylococcus aureus [20]): 8 µM

CCCCCC(=O)NC(Cc1cn(CCCC[C@H](NC(C)=O)C(=O)NCC(=O)N[C@@H](CC(C)C)C(=O)N[C@@H](CC(C)C)C(=O)N[C@H](CCCCN)C(=O)N[C@@H](CCCNC(=N)N)C(=O)N[C@H](C(=O)N[C@H](CCCCN)C(=O)N[C@H](C(=O)N[C@@H](CC(C)C)C(=O)N[C@@H](CC(C)C)C(N)=O)[C@@H](C)O)[C@@H](C)CC)nn1)C(=O)NCC(=O)N[C@@H](CC(C)C)C(=O)N[C@@H](CC(C)C)C(=O)N[C@H](CCCCN)C(=O)N[C@@H](CCCNC(=N)N)C(=O)N[C@H](C(=O)N[C@H](CCCCN)C(=O)N[C@H](C(=O)N[C@@H](CC(C)C)C(=O)N[C@@H](CC(C)C)C(N)=O)[C@@H](C)O)[C@@H](C)CC (stereo not given in full)
Activity (Escherichia coli [21]): Active
MIC (Staphylococcus aureus [22]): 64 µM
viability at 1 h, 32 µM [23]: > 80%
MIC (Staphylococcus aureus [24]): 64 µM
MIC (Staphylococcus aureus [25]): 128 µM
MIC (Staphylococcus aureus [26]): 32 µM

CCCCCCCCCCCC(=O)NC(Cc1cn(CCCC[C@H](NC(C)=O)C(=O)NCC(=O)N[C@@H](CC(C)C)C(=O)N[C@@H](CC(C)C)C(=O)N[C@H](CCCCN)C(=O)N[C@@H](CCCNC(=N)N)C(=O)N[C@H](C(=O)N[C@H](CCCCN)C(=O)N[C@H](C(=O)N[C@@H](CC(C)C)C(=O)N[C@@H](CC(C)C)C(N)=O)[C@@H](C)O)[C@@H](C)CC)nn1)C(=O)NCC(=O)N[C@@H](CC(C)C)C(=O)N[C@@H](CC(C)C)C(=O)N[C@H](CCCCN)C(=O)N[C@@H](CCCNC(=N)N)C(=O)N[C@H](C(=O)N[C@H](CCCCN)C(=O)N[C@H](C(=O)N[C@@H](CC(C)C)C(=O)N[C@@H](CC(C)C)C(N)=O)[C@@H](C)O)[C@@H](C)CC (stereo not given in full)
Activity (DNA): inactive
Activity (Escherichia coli [27]): Active

CCCCCCCC(=O)NC(Cc1cn(CCCC[C@H](NC(C)=O)C(=O)NCC(=O)N[C@@H](CC(C)C)C(=O)N[C@@H](CC(C)C)C(=O)N[C@H](CCCCN)C(=O)N[C@@H](CCCNC(=N)N)C(=O)N[C@H](C(=O)N[C@H](CCCCN)C(=O)N[C@H](C(=O)N[C@@H](CC(C)C)C(=O)N[C@@H](CC(C)C)C(N)=O)[C@@H](C)O)[C@@H](C)CC)nn1)C(=O)NCC(=O)N[C@@H](CC(C)C)C(=O)N[C@@H](CC(C)C)C(=O)N[C@H](CCCCN)C(=O)N[C@@H](CCCNC(=N)N)C(=O)N[C@H](C(=O)N[C@H](CCCCN)C(=O)N[C@H](C(=O)N[C@@H](CC(C)C)C(=O)N[C@@H](CC(C)C)C(N)=O)[C@@H](C)O)[C@@H](C)CC (stereo not given in full)
Activity (RAW264.7): Toxic
MIC (Escherichia coli [28]): 8 µM
MIC (Escherichia coli [29]): 16 µM
MIC (Escherichia coli [30]): 4 µM
MIC (Staphylococcus aureus [31]): 32 µM
MIC (Escherichia coli [32]): 16 µM
MIC (Staphylococcus aureus [33]): 16 µM
